Laboratory results from patent publication US7550582B2, “Polyamide nucleic acid derivatives and agents, and processes for preparing them” (sanofi-aventis Deutschland GmbH, priority 2000, dated 2009).

Experiments:
complementary RNA = assay: Determining the melting temperatures (complementary RNA); assay type: binding; settings: 140 mM KCl, 10 mM sodium dihydrogen phosphate, 0.1 mM EDTA (pH 7.4); oligomer 0.5 to 1 OD260 per ml
Experimental: (§1) The melting temperatures were determined using an HP 8452A diode-array spectrophotometer, an HP 89090A Peltier element and HP Temperature Control Software Rev. B5.1 (from Hewlett Packard). Measurements were taken in 0.5° C./min steps in 140 mM KCl, 10 mM sodium dihydrogen phosphate, 0.1 mM EDTA (pH 7.4) as the buffer. The oligomer concentration was from 0.5 to 1 OD260 per ml.

complementary DNA = assay: Determining the melting temperatures (complementary DNA); assay type: binding; settings: for Tm (DNA): 140 mM KCl, 10 mM sodium dihydrogen phosphate, 0.1 mM EDTA (pH 7.4), oligomer 0.5 to 1 OD260 per ml; for degree of binding towards complementary DNA and RNA compared with the uncharged PNA (reference substance): melting temperature experiment
Experimental: as §1

[1] = test system: REH cells (human pre-B leukemia cells, DSM ACC 22); assay: Inhibiting cell proliferation; assay type: cell-based; settings: 10 μM, after >4 days of incubation
Experimental: The sequence of PNA-6 is directed against the translation start of the Ha-ras mRNA. REH cells (human pre-B leukemia cells, DSM ACC 22) or A549 tumor cells were cultured, at 37° C. and under 5% CO2, in OptiMEM (Gibco BRL) containing 10% fetal calf serum (FCS, GIBCO-BRL). The cell density for the assay was approx. 1×10^6/ml. The PNA-6 (10 μM) was incubated with the cells in 24-well plates. After incubating at 37° C. and under 5% CO2 for 96 hours, the cell density was determined. Mean values for the cell density were determined from 3 individual wells at a given PNA concentration. […] After >4 days of incubation, the inhibition brought about by PNA-6 was greater than that brought about by a corresponding phosphorothioate oligonucleotide.

COS cells = assay: Determining cell uptake after fluorescence labeling; assay type: cell-based; settings: PNA solution 10 μM, 37° C., examined after 2, 4 and 16 hours
Experimental: COS cells were allowed to grow to confluence in Dulbecco's MEM, which was supplemented with 10% FCS, in 5 cm Petri dishes. The cells were washed twice with serum-free DMEM. An area of approx. 1 cm^2 was scratched out in the middle of the Petri dish using a sterile needle. The PNA solution (10 μM) under investigation was applied in this area. The dish was incubated at 37° C. under a CO2 atmosphere. After 2, 4 and 16 hours, the cells were examined by fluorescence microscopy. For this, the cells were washed four times with serum-free DMEM, covered with a cover slip, and evaluated under the fluorescence microscope or by phase contrast. PNA-5 and PNA-6 were examined by fluorescence microscopy.

Substance | Tm (RNA) (complementary RNA) [°C] | Tm (DNA) (complementary DNA) [°C] | inhibition of proliferation compared with a corresponding phosphorothioate oligonucleotide [1] | degree of binding towards complementary DNA and RNA compared with the uncharged PNA (reference substance) (complementary DNA) | cell uptake by fluorescence microscopy, compared with the PNA with no hexadecyl radical (COS cells)
Ac-HN-tat tcc gtc at-hex [Reference, reference compound] | 56.6 | 41.9 |  |  | 
C16-p-t(oeg) at tcc gtc at-aminohexyl-p-fluorescein [PNA-6] | 56.9 | 44.1 | greater | equally good or better degree of binding | taken up more efficiently
p-t(oeg) at tcc gtc at-aminohexyl-p-fluorescein [PNA-5] | 56.9 | 41.8 |  | equally good or better degree of binding | 
